Source: PMC6900491, “The LRRC8 volume‐regulated anion channel inhibitor, DCPIB, inhibits mitochondrial respiration independently of the channel” (Physiological Reports, 2019)

Biological target: T1, LRRC8A (volume-regulated anion channel, VRAC) (Homo sapiens, UniProt Q8IWT6)
T1 construct: endogenous VRAC in WT HAP-1 and HEK-293 cells (current absent in LRRC8A-KO cells); with at least one other LRRC8 subunit (LRRC8B, C, D or E)
T1 sequence (Q8IWT6 1-810): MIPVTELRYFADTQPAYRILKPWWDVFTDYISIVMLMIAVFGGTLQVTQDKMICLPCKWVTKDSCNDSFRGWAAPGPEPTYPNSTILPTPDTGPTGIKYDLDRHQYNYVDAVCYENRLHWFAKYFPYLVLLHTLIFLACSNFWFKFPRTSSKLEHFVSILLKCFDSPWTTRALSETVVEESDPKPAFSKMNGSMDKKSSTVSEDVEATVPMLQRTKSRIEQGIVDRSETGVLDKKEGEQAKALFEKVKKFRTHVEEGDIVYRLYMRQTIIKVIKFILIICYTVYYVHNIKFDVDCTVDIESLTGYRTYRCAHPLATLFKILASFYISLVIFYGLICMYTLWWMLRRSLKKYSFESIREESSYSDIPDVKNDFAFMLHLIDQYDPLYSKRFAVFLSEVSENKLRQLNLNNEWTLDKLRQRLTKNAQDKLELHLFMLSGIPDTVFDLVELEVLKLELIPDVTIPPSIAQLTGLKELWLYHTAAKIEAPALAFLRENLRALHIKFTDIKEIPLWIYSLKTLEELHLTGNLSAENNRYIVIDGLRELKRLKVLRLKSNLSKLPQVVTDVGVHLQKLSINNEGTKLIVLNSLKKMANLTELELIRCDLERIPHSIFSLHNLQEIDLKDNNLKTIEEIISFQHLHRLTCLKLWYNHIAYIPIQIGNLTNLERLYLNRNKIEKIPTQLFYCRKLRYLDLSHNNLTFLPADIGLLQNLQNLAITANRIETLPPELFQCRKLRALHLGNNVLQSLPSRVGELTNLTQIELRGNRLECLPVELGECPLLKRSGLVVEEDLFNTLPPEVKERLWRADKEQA
Assay: whole-cell patch clamp of swelling-induced anion current, WT vs LRRC8A-KO cells
Type: cell-based

In the case of `CCCCC1(C2CCCC2)Cc2cc(OCCCC(=O)O)c(Cl)c(Cl)c2C1=O` (stereo not shown) [DCPIB, 4‐(2‐butyl‐6,7‐dichloro‐2‐cyclopentylindan‐1‐on‐5‐yl) oxybutyric acid], the “whole-cell patch clamp of swelling-induced anion current, WT vs LRRC8A-KO cells” value is reported as 10 µM.
